According to patent US11376264B2, “Use of bromodomain-containing protein 9 antagonists in combination with vitamin D receptor agonists in diabetes treatment” (Salk Institute for Biological Studies, priority 2017, dated 2022):
“Also recorded” adds a separate entry of the source.

Key:
[1] = system: mouse islets; test: Isolated mouse islets cultured with IL1β ± Cal (RNA-Seq); assay type: cell-based
Experimental: Total RNA was isolated from tissue or cell pellets using the RNA mini kit (Qiagen). Sequencing libraries were prepared from 100-500 ng total RNA using the TruSeq RNA Sample Preparation Kit v2 (Illumina) according to the manufacturer's protocol. Briefly, mRNA was purified, fragmented, and used for first-, then second-strand cDNA synthesis followed by adenylation of 3′ ends. Samples were ligated to unique adapters and subjected to PCR amplification. Libraries were then validated using the 2100 BioAnalyzer (Agilent), normalized, and pooled for sequencing. RNA-Seq libraries prepared from two biological replicates for each experimental condition were sequenced on the Illumina HiSeq 2000 using bar-coded multiplexing and a 100 bp read length.
Image analysis and base calling were performed with Illumina CASAVA-1.8.2. This yielded a median of 29.9M usable reads per sample. Short read sequences were mapped to a UCSC mm9 reference sequence using the RNA-seq aligner STAR (Dobin et al., 2013). Known splice junctions from mm9 were supplied to the aligner and de novo junction discovery was also permitted. Differential gene expression analysis, statistical testing and annotation were performed using Cuffdiff 2 (Trapnell et al., 2013). Transcript expression was calculated as gene-level relative abundance in fragments per kilobase of exon model per million mapped fragments and employed correction for transcript abundance bias (Roberts et al., 2011). RNA-Seq results for genes of interest were also explored visually using the UCSC Genome Browser.
Mouse pancreatic islets were isolated as previously described (Yoshihara et al., 2010, Nat. Commun 1:127) with slight modification. Briefly, 0.5 mg/ml collagenase P (Roche REF 1213873001, diluted in HBSS buffer, GIBCO, 14170-112) was injected through the common bile duct, and the perfused pancreas dissected and incubated at 37° C. for 21 min. Digested exocrine cells and intact islets were separated via centrifugation (900×g for 15 min) over Histopaque-1077 (Sigma, H8889), and intact islets were manually selected. […]

[2] = system: human islets; test: Long term ex vivo human islet cultures; assay type: cell-based; conditions: for insulin secretion: 1 week; for islet survival (cell numbers): 4 weeks
Experimental: Mouse pancreatic islets were isolated as previously described (Yoshihara et al., 2010, Nat. Commun 1:127) with slight modification. Briefly, 0.5 mg/ml collagenase P (Roche REF 1213873001, diluted in HBSS buffer, GIBCO, 14170-112) was injected through the common bile duct, and the perfused pancreas dissected and incubated at 37° C. for 21 min. Digested exocrine cells and intact islets were separated via centrifugation (900×g for 15 min) over Histopaque-1077 (Sigma, H8889), and intact islets were manually selected. Human islets were provided by the Integrated Islets Distribution Program (see details below).

[3] = In vivo pharmacokinetic study of iBRD9 (plasma, LC-MS); conditions: FIG. 12J, n=3
Experimental: An internal standard of d4-succinate was added to all samples prior to analysis. […] of methanol containing 100 pmol of d4-succinate was added to 50 uL plasma samples and vortexed for 1 min. The samples were then centrifuged at 17.000× g for 10 min at 4° C. After drying the supernatant via SpeedVac, the extract was dissolved in H2O ([…]) and […] was subjected to liquid chromatography mass spectrometry (LC-MS). Compound i-BRD9 was measured using a TSQ Quantiva mass spectrometer (Thermo) and Dionex Ultimate 3000 (Thermo) fitted with a Gemini C18 HPLC column ([…]; 4.6 mm×50 mm, Phenomenex). LC solvents used were: solvent A, 0.1% formic acid in water; solvent B, 0.1% formic acid in acetonitrile. Separations took place over 16 min with a flow rate of 0.4 mL/min and consisted of the following steps: 5 to 50% solvent B over 9 min, 50 to 80% B over 1 min, 80% B for 1 min, 80 to 5% B over 0.1 min, and 5% B for 5 min. MS analyses were performed using electrospray ionization (ESI) in positive ion mode for i-BRD9 and negative ion mode for d4-succinate. Positive and negative mode source parameters were as follows: spray voltage 3.5 kV, ion transfer tube temperature of 325° C., and a vaporizer temperature of 275° C. Multiple reaction monitoring transitions for target compound and internal standard are shown in (Table 2).

[4] = system: BAF/PBAF complex binding at Nfkbia, Nfkbiz, Camk4; test: ChIP-qPCR of ARID1B and BAF180 at VDR target loci; assay type: cell-based, rat
Text: The experimental procedure for ChIP was as previously described (Barish et al., 2010, Genes Dev 24:2760-5). Briefly, after fixation, nuclei from were isolated, lysed, and sheared with a Diagenode Bioruptor to yield DNA fragment sizes of 200-1,000 bp followed by immunoprecipitation.

Row | SMILES | IL1β-induced damage / gene expression changes in islets ([1]; 48 or 96 hours) | number of genes induced by IL1β and rescued ([1]; 96 hours) [genes] | number of genes suppressed by IL1β and rescued ([1]; 96 hours) [genes] | insulin secretion [2] | insulin secretion ([2]; listed as Calcipotriol) | islet survival (cell numbers) [2] | islet survival (cell numbers) ([2]; listed as Calcipotriol) | maximum plasma iBRD9 concentration [3] [nM] | ARID1B (BAF complex) binding at target gene loci [4] | BAF180 (PBAF complex) binding at target gene loci [4]
1 | C=C1/C(=C\C=C2/CCC[C@]3(C)[C@@H]([C@H](C)/C=C/[C@@H](O)C4CC4)CC[C@@H]23)C[C@@H](O)C[C@@H]1O [Cal, calcipotriol] | protected islets from IL1β-induced damage; also recorded: partially rescued | 332 | 169 | increased | Increases | increased | Increases | – | – | –
2 | CCn1cc(-c2cccc(C(F)(F)F)c2)c2sc(C(=N)NC3CCS(=O)(=O)CC3)cc2c1=O [iBRD9] | – | – | – | – | – | – | – | ~750 | reduces BAF complex binding | increases PBAF complex binding
